Measurements taken from patent US7250408B2, “Glucocorticoid receptor antagonists for prophylaxis and therapy of glucocorticoid-mediated hypogonadism, of sexual dysfunction and/or infertility” (Bayer Schering Pharma AG, priority 2002, dated 2007).

Assays:
[1] = target: T1, Progesterone Receptor (Homo sapiens, UniProt P06401); assay: Progesterone receptor binding, relative binding affinity (RBA); conditions: RBA relative to progesterone = 100
T1 sequence (P06401 1-933): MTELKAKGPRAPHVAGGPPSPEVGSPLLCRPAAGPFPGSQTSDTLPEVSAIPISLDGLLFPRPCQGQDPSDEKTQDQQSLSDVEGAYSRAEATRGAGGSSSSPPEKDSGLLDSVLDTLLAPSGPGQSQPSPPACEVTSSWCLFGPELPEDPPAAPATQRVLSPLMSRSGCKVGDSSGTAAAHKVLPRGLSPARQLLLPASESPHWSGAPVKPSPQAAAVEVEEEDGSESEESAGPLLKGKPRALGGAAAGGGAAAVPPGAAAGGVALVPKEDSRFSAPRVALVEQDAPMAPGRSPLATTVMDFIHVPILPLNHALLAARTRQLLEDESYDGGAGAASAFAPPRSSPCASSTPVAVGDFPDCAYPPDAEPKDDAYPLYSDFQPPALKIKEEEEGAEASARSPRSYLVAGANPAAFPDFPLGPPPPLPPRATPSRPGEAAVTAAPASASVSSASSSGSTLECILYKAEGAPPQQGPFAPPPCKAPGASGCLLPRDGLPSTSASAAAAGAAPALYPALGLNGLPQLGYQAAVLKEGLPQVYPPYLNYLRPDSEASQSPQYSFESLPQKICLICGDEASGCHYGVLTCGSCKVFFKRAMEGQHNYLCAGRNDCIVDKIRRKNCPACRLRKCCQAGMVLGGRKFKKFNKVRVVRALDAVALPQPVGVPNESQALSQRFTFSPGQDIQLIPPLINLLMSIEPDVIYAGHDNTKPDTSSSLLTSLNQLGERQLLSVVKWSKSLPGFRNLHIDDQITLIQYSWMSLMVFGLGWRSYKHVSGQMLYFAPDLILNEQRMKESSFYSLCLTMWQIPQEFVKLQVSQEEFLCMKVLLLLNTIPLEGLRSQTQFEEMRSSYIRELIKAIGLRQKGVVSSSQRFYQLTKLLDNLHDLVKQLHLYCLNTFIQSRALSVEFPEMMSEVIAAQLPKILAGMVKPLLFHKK

[2] = target: T2, Glucocorticoid Receptor (Homo sapiens, UniProt P04150); assay: Glucocorticoid receptor binding, relative binding affinity (RBA); conditions: RBA relative to dexamethasone = 100
T2 sequence (P04150 1-777): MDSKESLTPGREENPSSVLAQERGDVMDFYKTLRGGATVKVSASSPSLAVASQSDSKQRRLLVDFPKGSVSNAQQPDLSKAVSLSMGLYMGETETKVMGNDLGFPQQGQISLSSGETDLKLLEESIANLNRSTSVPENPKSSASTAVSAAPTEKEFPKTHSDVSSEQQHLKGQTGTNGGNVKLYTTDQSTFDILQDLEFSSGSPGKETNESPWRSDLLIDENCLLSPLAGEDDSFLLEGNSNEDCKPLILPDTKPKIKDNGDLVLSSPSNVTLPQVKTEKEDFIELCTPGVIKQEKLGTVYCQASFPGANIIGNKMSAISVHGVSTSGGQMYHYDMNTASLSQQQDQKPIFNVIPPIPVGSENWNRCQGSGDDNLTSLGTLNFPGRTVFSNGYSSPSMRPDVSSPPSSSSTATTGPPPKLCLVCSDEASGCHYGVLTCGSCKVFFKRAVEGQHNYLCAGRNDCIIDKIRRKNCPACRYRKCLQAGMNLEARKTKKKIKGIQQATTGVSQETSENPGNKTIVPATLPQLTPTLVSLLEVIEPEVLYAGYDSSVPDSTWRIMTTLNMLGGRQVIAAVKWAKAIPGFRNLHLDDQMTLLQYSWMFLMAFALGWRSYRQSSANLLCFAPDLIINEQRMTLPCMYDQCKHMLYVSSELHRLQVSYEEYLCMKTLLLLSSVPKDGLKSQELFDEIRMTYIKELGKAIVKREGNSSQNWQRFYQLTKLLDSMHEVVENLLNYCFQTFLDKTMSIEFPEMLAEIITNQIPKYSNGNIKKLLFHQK

COc1cccc(C2CC3(C)C(CCC3(O)C#CC(C)(C)C)C3CCC4=CC(=O)CCC4=C23)c1 (stereo not drawn) [Example 1, 21-tert.Butyl-17-hydroxy-11β-(3-methoxyphenyl)-19-nor-17α-pregna-4,9-dien-20-yn-3-one]
Relative Binding Affinity to Progesterone Receptor, % [1]: 3.4%
Relative Binding Affinity to Glucocorticoid Receptor, % [2]: 85%

COc1cccc(C2CC3(C)C(CCC3(O)C#Cc3ccc(-n4cccc4)cc3)C3CCC4=CC(=O)CCC4=C23)c1 (centres unmarked) [Example 5]
Relative Binding Affinity to Progesterone Receptor, % [1]: 3.4%
Relative Binding Affinity to Glucocorticoid Receptor, % [2]: 57%

COc1cccc(C2CC3(C)C(CCC3(O)C#Cc3ccc(O)cc3)C3CCC4=CC(=O)CCC4=C23)c1 (centres unmarked) [Example 6]
Relative Binding Affinity to Progesterone Receptor, % [1]: 2.9%
Relative Binding Affinity to Glucocorticoid Receptor, % [2]: 109%

COc1cccc(C2CC3(C)C(CCC3(O)C#Cc3ccc(OC(C)=O)cc3)C3CCC4=CC(=O)CCC4=C23)c1 (centres unmarked) [Example 4]
Relative Binding Affinity to Progesterone Receptor, % [1]: 2.8%
Relative Binding Affinity to Glucocorticoid Receptor, % [2]: 98%

COc1cccc(C2CC3(C)C(CCC3(O)C#Cc3cccc(C=NO)c3)C3CCC4=CC(=O)CCC4=C23)c1 (stereo not drawn) [Example 10, 3-E-[17-Hydroxy-11β-[3-(methoxy)phenyl)-19-nor-3-keto-17α-pregna-4,9-dien-20-yn-21-yl]benzaldoxime]
Relative Binding Affinity to Progesterone Receptor, % [1]: 10.4%
Relative Binding Affinity to Glucocorticoid Receptor, % [2]: 148%

COc1cccc(C2CC3(C)C(CCC3(O)C#Cc3ccc(S(C)(=O)=O)cc3)C3CCC4=CC(=O)CCC4=C23)c1 (stereo not drawn) [Example 7, 17-Hydroxy-21-(4-mesylphenyl)-11,6-(3-methoxyphenyl)-19-nor-17α-pregna-4,9-dien-20-yn-3-one]
Relative Binding Affinity to Progesterone Receptor, % [1]: 1.0%
Relative Binding Affinity to Glucocorticoid Receptor, % [2]: 155%

COc1cccc(C2CC3(C)C(CCC3(O)C#Cc3cccc(C=O)c3)C3CCC4=CC(=O)CCC4=C23)c1 (stereo not drawn) [Example 3, 3-{17-Hydroxy-11β-[3-(methoxy)phenyl]-3-keto-19-nor-17α-pregna-4,9-dien-20-yn-21-yl}benzaldehyde]
Relative Binding Affinity to Progesterone Receptor, % [1]: 4.3%
Relative Binding Affinity to Glucocorticoid Receptor, % [2]: 159%
